Among the data in patent publication US20230073777A1, “CYCLIC-AMP RESPONSE ELEMENT BINDING PROTEIN (CBP) AND/OR ADENOVIRAL E1A BINDING PROTEIN OF 300 KDA (P300) DEGRADATION COMPOUNDS AND METHODS OF USE” (CULLGEN (SHANGHAI), INC., priority 2019, published 2023) are IC50 and inhibition values, retold here.

A value given as a limit tells only on which side of the number the result lay.

The subject of one assay is LNCaP cells. Description: LNCaP cell viability assay (CellTiter-Glo). The class given is cell-based. The note with it: Homo sapiens, 72 h; LNCaP prostate cancer cell viability inhibition, 3 days, CellTiter-Glo (Table 3). In outline: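 Three-day treatment of LNCaP cells (5000 per well) across a 12-point, 3-fold dilution series starting at 10 μM. ATP luminescence (CellTiter-Glo) relative to untreated controls gave dose-response curves fitted nonlinearly for IC50.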
On the technique in general: Cellular ATP, detected with luciferase, serves as a proxy for viable cell number.

The target of another assay is P300 (Homo sapiens, UniProt Q09472). Description: Immunoblotting of P300 protein levels in LNCaP or 22RV1 cells. Details: LNCaP or 22RV1 cells that express CBP/P300 proteins were treated with GNE-781 or the bivalent compounds; endogenous in cells; host or cells: LNCaP (clone FGC) or 22RV1 cells. The following applies: percentage of inhibition of p300 at 10 nM (Table 3); read-out: Degradation (10 nM). The class given is cell-based. The method, boiled down:
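P300/CBP levels quantified by chemiluminescent immunoblot band densitometry, normalized against tubulin or vinculin loading controls. Lysates came from LNCaP or 22RV1 cells exposed to compounds or DMSO vehicle for indicated times.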
On the technique in general: In western blotting, separated proteins are transferred to a membrane and probed.

P300, sequence (Q09472 whole entry): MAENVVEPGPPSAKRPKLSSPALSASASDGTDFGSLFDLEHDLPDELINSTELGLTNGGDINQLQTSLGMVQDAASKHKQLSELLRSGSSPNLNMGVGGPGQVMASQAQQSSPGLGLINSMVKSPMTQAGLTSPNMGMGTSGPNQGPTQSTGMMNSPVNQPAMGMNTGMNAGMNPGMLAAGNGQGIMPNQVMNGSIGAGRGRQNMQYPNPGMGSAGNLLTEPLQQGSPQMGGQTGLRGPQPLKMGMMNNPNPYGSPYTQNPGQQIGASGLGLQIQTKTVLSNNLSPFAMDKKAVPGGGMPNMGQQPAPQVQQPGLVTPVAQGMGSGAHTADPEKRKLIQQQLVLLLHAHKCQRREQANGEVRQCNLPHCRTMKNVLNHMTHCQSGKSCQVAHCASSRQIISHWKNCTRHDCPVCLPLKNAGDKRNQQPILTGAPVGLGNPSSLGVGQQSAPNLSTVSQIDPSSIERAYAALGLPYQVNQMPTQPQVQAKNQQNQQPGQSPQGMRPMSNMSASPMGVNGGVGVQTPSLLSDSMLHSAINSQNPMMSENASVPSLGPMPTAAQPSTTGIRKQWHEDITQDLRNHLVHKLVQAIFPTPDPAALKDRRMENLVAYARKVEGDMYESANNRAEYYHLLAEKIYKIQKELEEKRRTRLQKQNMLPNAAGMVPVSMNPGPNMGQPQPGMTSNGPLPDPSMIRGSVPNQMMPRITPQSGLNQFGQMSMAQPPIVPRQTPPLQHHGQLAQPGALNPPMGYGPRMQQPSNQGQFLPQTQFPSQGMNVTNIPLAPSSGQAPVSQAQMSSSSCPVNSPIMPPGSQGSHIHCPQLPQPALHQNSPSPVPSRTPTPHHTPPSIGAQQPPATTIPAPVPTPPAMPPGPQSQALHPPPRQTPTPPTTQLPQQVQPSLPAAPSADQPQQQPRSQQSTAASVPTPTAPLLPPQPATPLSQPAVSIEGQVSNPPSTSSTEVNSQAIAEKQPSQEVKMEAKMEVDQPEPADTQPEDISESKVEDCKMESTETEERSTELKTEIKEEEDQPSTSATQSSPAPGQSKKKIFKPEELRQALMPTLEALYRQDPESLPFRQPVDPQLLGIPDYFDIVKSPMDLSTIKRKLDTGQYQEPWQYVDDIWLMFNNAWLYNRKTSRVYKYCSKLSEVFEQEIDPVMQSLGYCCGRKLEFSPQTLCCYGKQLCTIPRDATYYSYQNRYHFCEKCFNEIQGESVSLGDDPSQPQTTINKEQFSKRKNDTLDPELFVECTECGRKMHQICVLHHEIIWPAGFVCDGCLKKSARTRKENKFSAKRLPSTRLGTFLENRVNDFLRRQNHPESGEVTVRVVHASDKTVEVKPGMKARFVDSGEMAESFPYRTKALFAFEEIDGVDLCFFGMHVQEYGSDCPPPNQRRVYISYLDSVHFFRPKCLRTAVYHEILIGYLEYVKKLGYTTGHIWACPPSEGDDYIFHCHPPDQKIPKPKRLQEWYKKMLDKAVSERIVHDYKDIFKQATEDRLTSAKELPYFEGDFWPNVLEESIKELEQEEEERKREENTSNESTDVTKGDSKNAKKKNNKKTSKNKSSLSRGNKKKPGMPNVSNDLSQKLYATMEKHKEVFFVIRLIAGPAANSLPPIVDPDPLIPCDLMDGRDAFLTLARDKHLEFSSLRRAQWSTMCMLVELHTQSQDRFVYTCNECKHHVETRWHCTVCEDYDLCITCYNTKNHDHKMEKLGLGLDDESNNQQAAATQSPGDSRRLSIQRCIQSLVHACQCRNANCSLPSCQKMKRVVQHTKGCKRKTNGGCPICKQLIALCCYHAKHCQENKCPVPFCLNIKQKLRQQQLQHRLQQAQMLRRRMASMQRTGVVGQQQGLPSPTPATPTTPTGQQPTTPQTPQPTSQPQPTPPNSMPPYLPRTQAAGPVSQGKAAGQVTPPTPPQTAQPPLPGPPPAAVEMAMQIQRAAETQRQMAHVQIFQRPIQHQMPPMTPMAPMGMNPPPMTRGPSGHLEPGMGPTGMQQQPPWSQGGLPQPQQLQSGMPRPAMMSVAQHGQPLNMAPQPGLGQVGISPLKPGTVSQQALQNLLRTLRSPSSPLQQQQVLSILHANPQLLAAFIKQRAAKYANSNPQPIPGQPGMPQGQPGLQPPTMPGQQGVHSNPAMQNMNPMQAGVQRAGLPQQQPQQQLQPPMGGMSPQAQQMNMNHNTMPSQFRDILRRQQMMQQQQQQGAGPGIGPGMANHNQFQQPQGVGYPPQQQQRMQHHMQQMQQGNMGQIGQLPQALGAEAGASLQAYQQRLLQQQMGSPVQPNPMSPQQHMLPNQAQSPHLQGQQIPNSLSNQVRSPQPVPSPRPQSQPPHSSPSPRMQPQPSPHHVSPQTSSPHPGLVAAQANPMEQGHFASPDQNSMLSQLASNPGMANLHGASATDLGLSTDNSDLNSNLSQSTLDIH

One may read the IC50 as the concentration at which inhibition is half-maximal. A lower IC50 goes with inhibition by little substance. With `CNC(=O)N1CCc2c(c(N3CCCc4cc(-c5cnn(C)c5)c(C(F)F)cc43)nn2C2CCN(CCCCCCCc3cccc4c3C(=O)N(C3CCC(=O)NC3=O)C4=O)CC2)C1` (stereo not drawn) [P-097, 3-(7-(difluoromethyl)-6-(1-methyl-1H-pyrazol-4-yl)-3,4-dihydroquinolin-1(2H)-yl)-1-(1-(7-(2-(2,6-dioxopiperidin-3-yl)-1,3-dioxoisoindolin-4-yl)heptyl)piperidin-4-yl)-N-methyl-1,4,6,7-tetrahydro-5H-pyrazolo[4,3-c]pyridine-5-carboxamide], the IC50 in the assay on LNCaP cells amounted to 49 nM. Besides, the inhibition at 0.01 µM at P300 was above 80%.
Regarding `CNC(=O)N1CCc2c(c(N3CCCc4cc(-c5cnn(C)c5)c(C(F)F)cc43)nn2C2CCN(C(=O)CCCCCNc3cccc4c3n(C)c(=O)n4C3CCC(=O)NC3=O)CC2)C1` (stereo not drawn) [P-109, 3-(7-(difluoromethyl)-6-(1-methyl-1H-pyrazol-4-yl)-3,4-dihydroquinolin-1(2H)-yl)-1-(1-(6-((1-(2,6-dioxopiperidin-3-yl)-3-methyl-2-oxo-2,3-dihydro-1H-benzo[d]imidazol-4-yl)amino)hexanoyl)piperidin-4-yl)-N-methyl-1,4,6,7-tetrahydro-5H-pyrazolo[4,3-c]pyridine-5-carboxamide], in the assay with LNCaP cells, the IC50 is 12.9 nM. Also, the inhibition at 0.01 µM on P300 was above 80%.
The like results for `CC(=O)N1CCc2c(c(N3CCCc4cc(-c5cnn(C)c5)c(C(F)F)cc43)nn2C2CCN(C(=O)CC#CCCNc3cccc4c3C(=O)N(C3CCC(=O)NC3=O)C4=O)CC2)C1` (stereo not drawn) [P-171, 4-((6-(4-(5-Acetyl-3-(7-(difluoromethyl)-6-(1-methyl-1H-pyrazol-4-yl)-3,4-dihydroquinolin-1(2H)-yl)-4,5,6,7-tetrahydro-1H-pyrazolo[4,3-c]pyridin-1-yl)piperidin-1-yl)-6-oxohex-3-yn-1-yl)amino)-2-(2,6-dioxopiperidin-3-yl)isoindoline-1,3-dione] were, in that order, 253 nM and 20 to 50%.
Compound `CNC(=O)N1CCc2c(c(N3CCCc4cc(-c5cnn(C)c5)c(C(F)F)cc43)nn2C2CCN(C(=O)CCCCCNc3cccc4c3C(=O)N(C3CCC(=O)NC3=O)C4)CC2)C1` (stereo not drawn) [P-096, 3-(7-(difluoromethyl)-6-(1-methyl-1H-pyrazol-4-yl)-3,4-dihydroquinolin-1(2H)-yl)-1-(1-(6-((2-(2,6-dioxopiperidin-3-yl)-3-oxoisoindolin-4-yl)amino)hexanoyl)piperidin-4-yl)-N-methyl-1,4,6,7-tetrahydro-5H-pyrazolo[4,3-c]pyridine-5-carboxamide] displayed an IC50 with LNCaP cells of 26.6 nM. Further, on P300, the inhibition at 0.01 µM is above 80%.
In the assay on LNCaP cells, `CC(=O)N1CCc2c(c(N3CCCc4cc(-c5cnn(C)c5)c(C(F)F)cc43)nn2C2CCN(C(=O)CCCCCNc3cccc4nnn(C5CCC(=O)NC5=O)c(=O)c34)CC2)C1` (stereo not drawn) [P-151, 3-(5-((6-(4-(5-acetyl-3-(7-(difluoromethyl)-6-(1-methyl-1H-pyrazol-4-yl)-3,4-dihydroquinolin-1(2H)-yl)-4,5,6,7-tetrahydro-1H-pyrazolo[4,3-c]pyridin-1-yl)piperidin-1-yl)-6-oxohexyl)amino)-4-oxobenzo[d][1,2,3]triazin-3(4H)-yl)piperidine-2,6-dione] came in with an IC50 of 7.5 nM. Besides, on P300, the inhibition at 0.01 µM is above 80%.
In the same order, the values of `CC(=O)N1CCc2c(c(N3CCCc4cc(-c5cnn(C)c5)c(C(F)F)cc43)nn2C2CCN(CC3CCN(CCCc4cccc5c4C(=O)N(C4CCC(=O)NC4=O)C5=O)CC3)CC2)C1` (stereo not drawn) [P-149, 4-(3-(4-((4-(5-acetyl-3-(7-(difluoromethyl)-6-(1-methyl-1H-pyrazol-4-yl)-3,4-dihydroquinolin-1(2H)-yl)-4,5,6,7-tetrahydro-1H-pyrazolo[4,3-c]pyridin-1-yl)piperidin-1-yl)methyl)piperidin-1-yl)propyl)-2-(2,6-dioxopiperidin-3-yl)isoindoline-1,3-dione] are 11.4 nM and above 80%.
